Measurements from patent publication US20220098203A1 (priority 2018, published 2022).
Read-outs that look alike come from different tables or passages of the source.

Experiments:
MAT2A homodimer = target: T1, MAT2A homodimer (Homo sapiens, UniProt P31153); test: MAT2A biochemical assay (liberated phosphate, PiColorLock Gold); details: Table 5a; MAT2A biochemical assay; read-out: Enzyme Inhibition
T1 construct: inferred from the Ni sepharose purification and imidazole elution; made in house; host or cells: SF9 insect cells, recombinant baculovirus (Bac to Bac, pFASTBAC1)
Procedure, shortened: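 Readout is liberated phosphate (PiColorLock Gold), stoichiometric with SAM production, quantified against a potassium phosphate standard curve. Enzyme: recombinant MAT2A homodimer from Sf9, equilibrated 60 min at 25 °C with compound before 60 min reaction with substrate mix containing 500 μM ATP and 400 μM L-methionine.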

[1] = tested on: SAM in HCT116 MTAP-deleted cells; test: Cellular assay of target engagement (SAM), LC-MS/MS; format: cell-based, human; details: 72 h, read-out: Cell 72 h SAM Inhibition (MTAP −/−)
Procedure, shortened: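 Target engagement was read as intracellular SAM, measured by LC-MS/MS with d3-SAM as internal standard in methanol/acetic acid extracts. These came from MTAP-deleted HCT116 colon carcinoma cells exposed to inhibitor for 72 hrs.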

HCT116 MTAP-/- = test: Inhibition of cellular proliferation (Cell Titer Glo), HCT116 MTAP-/-; format: cell-based, human; details: 4 days, read-out: 4 Day Relative Growth Inhibition (MTAP −/−)
Procedure, shortened: (§1)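 After 4 days of compound exposure at 37 °C, starting 24 h after plating, growth of the MTAP-wildtype and MTAP-deleted HCT116 pair was measured as ATP luminescence (CellTiter-Glo). The proliferation index was signal minus no-cell blank, divided by blank-corrected 0.2% DMSO control.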

HCT116 MTAP+/+ = test: Inhibition of cellular proliferation (Cell Titer Glo), HCT116 MTAP+/+; format: cell-based; details: Homo sapiens, HCT-116, 96 h, Table 5a, 4 days, read-out: 4 Day Relative Growth Inhibition (MTAP +/+)
Procedure, shortened: as §1

[2] = Homo sapiens, HCT-116, Table 5a
[3] = Homo sapiens, HCT-116, 96 h, Table 5a
[4] = Table 6, select pairs of compounds

T1 sequence (P31153 whole entry): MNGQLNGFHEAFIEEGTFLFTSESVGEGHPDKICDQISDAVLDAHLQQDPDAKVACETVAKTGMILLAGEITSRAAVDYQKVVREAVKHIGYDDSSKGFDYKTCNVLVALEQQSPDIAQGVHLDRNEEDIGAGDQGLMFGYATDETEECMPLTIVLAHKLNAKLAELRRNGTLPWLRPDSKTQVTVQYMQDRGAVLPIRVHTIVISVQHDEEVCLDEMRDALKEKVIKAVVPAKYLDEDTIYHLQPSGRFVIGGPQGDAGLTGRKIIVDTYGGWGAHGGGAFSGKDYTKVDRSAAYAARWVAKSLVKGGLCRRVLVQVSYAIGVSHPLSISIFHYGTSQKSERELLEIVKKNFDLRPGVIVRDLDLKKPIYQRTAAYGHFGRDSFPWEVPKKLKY

| SMILES | IC50 (MAT2A homodimer) [nM] | IC50 [1, 2] [nM] | IC50 (HCT116 MTAP-/-; [3]) [nM] | IC50 (HCT116 MTAP+/+) [nM] | IC50 [1, 4] [nM] | IC50 (HCT116 MTAP-/-; [4]) [nM] |
| --- | --- | --- | --- | --- | --- | --- |
| [2H]C([2H])([2H])Oc1ccc(N2Cc3cnc(NCC(F)(F)F)nc3N(c3ccc(-c4nc[nH]n4)cc3)C2=O)cc1 [Example 215, 1-(4-(1H-1,2,4-triazol-3-yl)phenyl)-3-(4-(methoxy-d3)phenyl)-7-((2,2,2-trifluoroethyl)amino)-3,4-dihydropyrimido[4,5-d]pyrimidin-2(1H)-one] | < 100 | < 100 | 100 to 1000 | > 1000 | – | – |
| Cn1cc2cc(N3Cc4cnc(NCC(F)(F)F)nc4N(c4ccc(OC(F)F)cc4)C3=O)ccc2n1 [Example 216, 1-(4-(difluoromethoxy)phenyl)-3-(2-methyl-2H-indazol-5-yl)-7-((2,2,2-trifluoroethyl)amino)-3,4-dihydropyrimido[4,5-d]pyrimidin-2(1H)-one] | < 100 | < 100 | < 100 | > 1000 | < 100 | < 100 |
| Cc1nc2ccc(N3Cc4cnc(NCC(F)(F)F)nc4N(c4ccc(-c5nc[nH]n5)cc4)C3=O)cc2s1 [Example 217, 1-(4-(1H-1,2,4-triazol-3-yl)phenyl)-3-(2-methylbenzo[d]thiazol-6-yl)-7-((2,2,2-trifluoroethyl)amino)-3,4-dihydropyrimido[4,5-d]pyrimidin-2(1H)-one] | < 100 | < 100 | < 100 | > 1000 | – | – |
| Cn1cnc2ccc(N3Cc4cnc(NCC(F)(F)F)nc4N(c4ccc(-c5nc[nH]n5)cc4)C3=O)cc21 [Example 218, 1-(4-(1H-1,2,4-triazol-3-yl)phenyl)-3-(1-methyl-1H-benzo[d]imidazol-6-yl)-7-((2,2,2-trifluoroethyl)amino)-3,4-dihydropyrimido[4,5-d]pyrimidin-2(1H)-one] | < 100 | 100 to 1000 | 100 to 1000 | > 1000 | – | – |
| O=C1N(c2ccc3ncsc3c2)Cc2cnc(NCC(F)(F)F)nc2N1c1ccc(-c2nc[nH]n2)cc1 [Example 219, 1-(4-(1H-1,2,4-triazol-3-yl)phenyl)-3-(benzo[d]thiazol-6-yl)-7-((2,2,2-trifluoroethyl)amino)-3,4-dihydropyrimido[4,5-d]pyrimidin-2(1H)-one] | < 100 | < 100 | 100 to 1000 | > 1000 | – | – |
| Cn1cc2cc(N3Cc4cnc(NCC(F)(F)F)nc4N(c4ccc(-c5nc[nH]n5)cc4)C3=O)ccc2n1 [Example 220, 1-(4-(1H-1,2,4-triazol-3-yl)phenyl)-3-(2-methyl-2H-indazol-5-yl)-7-((2,2,2-trifluoroethyl)amino)-3,4-dihydropyrimido[4,5-d]pyrimidin-2(1H)-one] | < 100 | 100 to 1000 | 100 to 1000 | > 1000 | – | – |
| O=C1N(c2ccc3ncccc3c2)Cc2cnc(NCC(F)(F)F)nc2N1c1ccc(-c2nc[nH]n2)cc1 [Example 223, 1-(4-(1H-1,2,4-triazol-3-yl)phenyl)-3-(quinolin-6-yl)-7-((2,2,2-trifluoroethyl)amino)-3,4-dihydropyrimido[4,5-d]pyrimidin-2(1H)-one] | < 100 | < 100 | 100 to 1000 | > 1000 | – | – |
| COc1ccc(N2C(=O)N(c3ccnc(OC)c3)Cc3cnc(NCC(F)(F)F)nc32)cc1 [Example 228, 1-(4-methoxyphenyl)-3-(2-methoxypyridin-4-yl)-7-((2,2,2-trifluoroethyl)amino)-3,4-dihydropyrimido[4,5-d]pyrimidin-2(1H)-one] | < 100 | 100 to 1000 | 100 to 1000 | > 1000 | – | – |
| COc1ccc(N2C(=O)N(c3cn[nH]c3)Cc3cnc(NCC(F)(F)F)nc32)cc1 [Example 231, 1-(4-methoxyphenyl)-3-(1H-pyrazol-4-yl)-7-((2,2,2-trifluoroethyl)amino)-3,4-dihydropyrimido[4,5-d]pyrimidin-2(1H)-one] | 100 to 1000 | 100 to 1000 | > 1000 | > 1000 | – | – |
| COc1ccc(N2C(=O)N(c3ccc(=O)n(C)c3)Cc3cnc(NCC(F)(F)F)nc32)cc1 [Example 232, 1-(4-methoxyphenyl)-3-(1-methyl-6-oxo-1,6-dihydropyridin-3-yl)-7-((2,2,2-trifluoroethyl)amino)-3,4-dihydropyrimido[4,5-d]pyrimidin-2(1H)-one] | 100 to 1000 | > 1000 | > 1000 | > 1000 | – | – |
| COc1ccc(N2C(=O)N(c3ccc4[nH]cnc4c3)Cc3cnc(NCC(F)(F)F)nc32)cc1 [Example 234, 3-(1H-benzo[d]imidazol-5-yl)-1-(4-methoxyphenyl)-7-((2,2,2-trifluoroethyl)amino)-3,4-dihydropyrimido[4,5-d]pyrimidin-2(1H)-one] | < 100 | 100 to 1000 | 100 to 1000 | > 1000 | – | – |
| COc1ccc(N2Cc3cnc(NCC(F)(F)F)nc3N(c3ccc(OC(F)F)cc3)C2=O)cc1 [Example 235, 1-(4-(Difluoromethoxy)phenyl)-3-(4-methoxyphenyl)-7-(2,2,2-trifluoroethylamino)-3,4-dihydropyrimido[4,5-d]pyrimidin-2(1H)-one] | < 100 | 100 to 1000 | 100 to 1000 | > 1000 | – | – |
| COc1ccc(N2Cc3cnc(NCC(F)(F)F)nc3N(c3ccc(Br)cc3)C2=O)cc1 [Example 236, 1-(4-bromophenyl)-3-(4-methoxyphenyl)-7-((2,2,2-trifluoroethyl)amino)-3,4-dihydropyrimido[4,5-d]pyrimidin-2(1H)-one] | < 100 | 100 to 1000 | > 1000 | > 1000 | – | – |
| COc1ccc(N2C(=O)N(c3ccc4nccn4c3)Cc3cnc(NCC(F)(F)F)nc32)cc1 [Example 237] | < 100 | 100 to 1000 | 100 to 1000 | > 1000 | – | – |
| COc1ccc(N2C(=O)N(c3ccc4ncccc4c3)Cc3cnc(NCC(F)(F)F)nc32)cc1 [Example 241] | < 100 | 100 to 1000 | 100 to 1000 | > 1000 | – | – |
| COc1ccc(N2Cc3cnc(NCC(F)(F)F)nc3N(c3ccc(C4CC4)cc3)C2=O)cc1 [Example 242, 1-(4-cyclopropylphenyl)-3-(4-methoxyphenyl)-7-((2,2,2-trifluoroethyl)amino)-3,4-dihydropyrimido[4,5-d]pyrimidin-2(1H)-one] | < 100 | 100 to 1000 | 100 to 1000 | > 1000 | – | – |
| COc1ccc(N2C(=O)N(c3ccc4nn(C)cc4c3)Cc3c(OC)nc(NCC(F)(F)F)nc32)cc1 [Example 246, 5-methoxy-1-(4-methoxyphenyl)-3-(2-methyl-2H-indazol-5-yl)-7-((2,2,2-trifluoroethyl)amino)-3,4-dihydropyrimido[4,5-d]pyrimidin-2(1H)-one] | < 100 | 100 to 1000 | 100 to 1000 | > 1000 | – | – |
| COc1ccc(N2C(=O)N(c3ccc4nn(C)cc4c3)Cc3c(C)nc(NCC(F)(F)F)nc32)cc1 [Example 247, 1-(4-methoxyphenyl)-5-methyl-3-(2-methyl-2H-indazol-5-yl)-7-((2,2,2-trifluoroethyl)amino)-3,4-dihydropyrimido[4,5-d]pyrimidin-2(1H)-one] | < 100 | < 100 | < 100 | 100 to 1000 | – | – |
| COc1ccc(N2Cc3cnc(NCC(F)(F)F)nc3N(c3ccc(C(F)(F)F)cc3)C2=O)cc1 [Example 250, 3-(4-methoxyphenyl)-7-((2,2,2-trifluoroethyl)amino)-1-(4-(trifluoromethyl)phenyl)-3,4-dihydropyrimido[4,5-d]pyrimidin-2(1H)-one] | 100 to 1000 | 100 to 1000 | > 1000 | > 1000 | – | – |
| COc1ccc(N2Cc3cnc(NCC(F)(F)F)nc3N(c3ccc(Cl)cc3)C2=O)cc1 [Example 252, 1-(4-chlorophenyl)-3-(4-methoxyphenyl)-7-((2,2,2-trifluoroethyl)amino)-3,4-dihydropyrimido[4,5-d]pyrimidin-2(1H)-one] | 100 to 1000 | 100 to 1000 | > 1000 | > 1000 | – | – |
| COc1ccc(N2Cc3cnc(NCC(F)(F)F)nc3N(c3ccc(OC)cc3)C2=O)cc1 [Example 255, 1,3-bis(4-methoxyphenyl)-7-((2,2,2-trifluoroethyl)amino)-3,4-dihydropyrimido[4,5-d]pyrimidin-2(1H)-one] | < 100 | 100 to 1000 | 100 to 1000 | > 1000 | – | – |
| COc1ccc(N2Cc3cnc(NCC(F)(F)F)nc3N(c3ccc(OC)nc3)C2=O)cc1 [Example 261] | 100 to 1000 | 100 to 1000 | > 1000 | > 1000 | – | – |
| Cn1cc2cc(N3Cc4ccc(NCC(F)(F)F)nc4N(c4ccc(OC(F)F)cc4)C3=O)ccc2n1 [Example 264, 1-(4-(difluoromethoxy)phenyl)-3-(2-methyl-2H-indazol-5-yl)-7-((2,2,2-trifluoroethyl)amino)-3,4-dihydropyrido[2,3-d]pyrimidin-2(1H)-one] | < 100 | < 100 | < 100 | > 1000 | < 100 | < 100 |
